Tested on: PBL from HLA-A3 antigen positive melanoma patients
Test: ELISPOT in PBL from HLA-A3 antigen positive melanoma patients
Assay type: cell-based, human
Protocol: T-cell response against the ML-IAP245-253 ([…]) peptide as measured in an ELISPOT in PBL from 14 melanoma patients. T-lymphocytes were stimulated once with peptide before plated in triplicates either without or with peptide. The average number of peptide specific cells (after subtraction of spots without added peptide) was calculated for each patient as the number of spot forming cells per 10^5 CD8 positive cells after subtraction of the number of background spots formed without addition of peptide using the ImmunoSpot® Series 2.0 Analyzer (CTL Analyzers, LLC, Cleveland, US).
To extend the sensitivity of the ELISPOT assay, PBL were stimulated once in vitro prior to analysis^17,18. At day 0, PBL or crushed lymph nodes were thawed and plated in 2 ml/well at a concentration of 2×10^6 cells in 24-well plates (Nunc, Denmark) in X-vivo medium (Bio Whittaker, Walkersville, Md.), 5% heat-inactivated human serum, and 2 mM of L-glutamine in the presence of 10 μM of peptide. […]
The ELISPOT assay used to quantify peptide epitope-specific interferon-γ-releasing effector cells was performed as described previously^19. […] The spots were counted using the AlphaImager System (Alpha Innotech, San Leandro, Calif. USA) and the peptide specific CTL frequency could be calculated from the numbers of spot-forming cells. […]

RLQEERTCK (listed as Homo sapiens) [mL-IAP245-253]
peptide specific T-cells per 10^5 CD8+ cells (in the five responding patients): more than 200 per 10^5 CD8+ cells
patients hosting an immune response against the peptide (of 14 HLA-A3 antigen positive melanoma patients, response of more than 200 specific T-cells per 10^5 CD8+ cells): five

Source: patent publication US7687465B2, “Therapeutic cancer vaccine” (Kraeftens Bekaempelse, priority 2003, dated 2010)
